Converted amounts (≈) assume the structure as drawn.
How the values were obtained:
[1] = tested on: S. aureus ATCC43300 biofilm formation; conditions: 4 μg/mL
Description: Bacterial biofilms created by the aggregation of bacteria is considered as one of the main reasons for the development of drug resistance. […] Subsequently, we further assessed the efficiency of 9h to eradicate the preformed biofilm. Matured S. aureus biofilm (grown for 24 h) was treated with compound 9h, and the rate of biofilm disruption was then assessed by the crystal violet staining assay.
Biofilm inhibition assay: S. aureus ATCC43300 was cultured (37 °C, 200 rpm) in MHB broth for 5 h and diluted to 1 × 10^6 CFU/mL. […] The planktonic supernatant cells were discarded and washed with PBS three times. Then, methanol (150 µL) was added to each well for 30 min. After discarding methanol, 0.1% crystal violet solution (150 µL) was added, and biofilms were stained for 15 min. Next, crystal violet solution was removed and washed with PBS three times. Finally, ethanol (150 µL) was pipetted into the wells, and the OD values were measured at 575 nm. The biofilm inhibition (%) = (ODcompound − ODblank)/(ODpositive control − ODblank) × 100%.

S. aureus = assay: MIC, summary over the S. aureus strains tested; type: cell-based; conditions: Staphylococcus aureus; over the three S. aureus strains tested; read-out: MICs against S. aureus
Description: (§1) All target derivatives were assessed for their in vitro antibacterial activities using a broth microdilution assay to test their minimum inhibitory concentrations (MICs) against six Gram-positive strains (S. aureus ATCC31007, S. aureus ATCC25923, S. aureus ATCC43300, E. faecalis ATCC29212, B. subtilis ATCC9372, and S. epidermidis ATCC12228) and four Gram-negative strains (A. baumannii ATCC19606, K. pneumonia ATCC10031, E. coli ATCC25922, and P. aeruginosa ATCC27853). These compounds were also evaluated for their hemolytic activities and membrane selectivity by determining their HC50 (the concentration required to lyse 50% of red blood cells) and SI (HC50/MICs) values, respectively, and vancomycin was used as the positive drug.
(§2) MICs of the derivatives were determined by the micro broth dilution method according to the American Clinical and Laboratory Standards Institute (CLSI) standards. Briefly, 2-fold serial dilutions of target compounds were prepared in 96-well plates containing TSB broth. An equal volume of bacterial suspension (10^6 CFU/mL) was then pipetted into each well, and the mixture was incubated at 37 °C for 24 h. […] All biological experiments were repeated three times.

[2] = tested on: Bacillus subtilis ATCC9372, penicillin-susceptible strain; assay: MIC, broth microdilution; type: cell-based; conditions: Bacillus subtilis ATCC9372; read-out: MIC B. s. 9372
Description: as §1, §2

[3] = tested on: Staphylococcus aureus ATCC25923, erythromycin-susceptible strain; assay: MIC, broth microdilution; type: cell-based; conditions: Staphylococcus aureus ATCC25923; read-out: MIC S. a. 25923
Description: as §1, §2

[4] = tested on: Enterococcus faecalis ATCC29212, vancomycin-susceptible strain; assay: MIC, broth microdilution; type: cell-based; conditions: Enterococcus faecalis ATCC29212; read-out: MIC E. f. 29212
Description: as §1, §2

[5] = tested on: Klebsiella pneumonia ATCC10031; assay: MIC, broth microdilution; type: cell-based; conditions: Klebsiella pneumoniae; Klebsiella pneumonia ATCC10031; read-out: MIC K. p. 10031
Description: as §1, §2

[6] = tested on: Escherichia coli ATCC25922, penicillin-susceptible strain; assay: MIC, broth microdilution; type: cell-based; conditions: Escherichia coli ATCC25922; read-out: MIC E. c. 25922
Description: as §1, §2

[7] = tested on: Staphylococcus aureus ATCC31007, penicillin-resistant strain; assay: MIC, broth microdilution; type: cell-based; conditions: Staphylococcus aureus ATCC31007; read-out: MIC S. a. 31007
Description: as §1, §2

[8] = tested on: Acinetobacter baumannii ATCC19606; assay: MIC, broth microdilution; type: cell-based; conditions: Acinetobacter baumannii ATCC19606; read-out: MIC A. b. 19606
Description: as §1, §2

[9] = tested on: Staphylococcus epidermidis ATCC12228, erythromycin-susceptible strain; assay: MIC, broth microdilution; type: cell-based; conditions: Staphylococcus epidermidis ATCC12228; read-out: MIC S. e. 12228
Description: as §1, §2

[10] = tested on: Pseudomonas aeruginosa ATCC27853, penicillin-susceptible strain; assay: MIC, broth microdilution; type: cell-based; conditions: Pseudomonas aeruginosa ATCC27853; read-out: MIC P. a. 27853
Description: as §1, §2

[11] = tested on: Staphylococcus aureus ATCC43300, methicillin-resistant strain; assay: microbe, parasite or virus in culture; type: cell-based; conditions: ATCC 43300 / MRSA; Staphylococcus aureus ATCC43300 (MRSA); read-out: MIC S. a 43300
Description: as §1, §2

red blood cells = assay: Hemolysis assay; type: cell-based, Sheep; conditions: concentration required to lyse 50% of red blood cells; 37 °C, 1 h
Description: as §1
To further detect the hemolytic toxicity and therapeutic potential of these derivatives, we proceeded to examine the hemolytic activities and membrane selectivity of these derivatives. The HC50 value was defined as the concentration needed for a compound to lyse 50% of red blood cells, and it is often used to evaluate the hemolytic toxicity to eukaryotic cells. […] The selectivity index (SI) was calculated by HC50/MICs of S. aureus ATCC43300 and was used to assess the potency and safety of the compounds. […] Thus, compound 9h was selected as a representative molecule for the in-depth in vitro and in vivo studies.
Sheep blood was used to isolate red blood cells (RBCs), which were then resuspended in 1× PBS (5%). The compounds were dissolved in PBS to give an initial concentration of 5.12 mg/mL, compound solution (100 μL) was added to the first well of a 96-well plate, two-fold serial dilutions of compounds were prepared in 96-well plates, and then 150 μL of 5% RBC suspension was added to each well. This was followed by incubation at 37 °C for 1 h. After incubation, the plate was centrifuged (3500 rpm, 5 min), and 100 μL of supernatant solution from each well was carefully pipetted into a new plate. The absorbance values were measured at 540 nm. Erythrocyte hemolysis rate = (Absorbancecompound – Absorbance negative control)/(Absorbance1% Triton X-100 − Absorbance negative control) × 100%. All biological experiments were repeated three times.

[12] = tested on: Enterococcus faecalis ATCC51299, vancomycin-resistant strain; assay: MIC, broth microdilution; type: cell-based; conditions: Enterococcus faecalis ATCC51299, vancomycin-resistant; read-out: MIC E. f. 51299
Description: as §2

[13] = tested on: Enterococcus faecium ATCC51559, vancomycin-resistant strain; assay: MIC, broth microdilution; type: cell-based; conditions: Enterococcus faecium ATCC51559, vancomycin-resistant; read-out: MIC E. f. 51559
Description: as §2

Structure (SMILES)	inhibition of S. aureus biofilm formation [1]	MIC (S. aureus)	MIC [2]	MIC [3]	MIC [4]	MIC [5]	MIC [6]	MIC [7]	MIC [8]	MIC [9]	MIC [10]	MIC [11]	HC50 (red blood cells)	MIC [12]	MIC [13]
CC[C@H](C)[C@H](NC(=O)[C@H](CCCCN)NC(=O)[C@H](CCC(=O)O)NC(=O)[C@H](CCCCN)NC(=O)[C@H](CO)NC(=O)[C@H](CCCCN)NC(=O)[C@H](CCCNC(=N)N)NC(=O)[C@H](Cc1ccccc1)NC(=O)[C@H](Cc1ccccc1)NC(=O)[C@H](CC(=O)O)NC(=O)CNC(=O)[C@H](CC(C)C)NC(=O)[C@@H](N)CC(C)C)C(=O)NCC(=O)N[C@@H](CCCCN)C(=O)N[C@@H](CCC(=O)O)C(=O)N[C@@H](Cc1ccccc1)C(=O)N[C@@H](CCCCN)C(=O)N[C@@H](CCCNC(=N)N)C(=O)N[C@H](C(=O)N[C@H](C(=O)N[C@@H](CCC(N)=O)C(=O)N[C@@H](CCCNC(=N)N)C(=O)N[C@H](C(=O)N[C@@H](CCCCN)C(=O)N[C@@H](CC(=O)O)C(=O)N[C@@H](Cc1ccccc1)C(=O)N[C@@H](CC(C)C)C(=O)N[C@@H](CCCNC(=N)N)C(=O)N[C@@H](CC(N)=O)C(=O)N[C@@H](CC(C)C)C(=O)N[C@H](C(=O)N1CCC[C@H]1C(=O)N[C@@H](CCCNC(=N)N)C(=O)N[C@H](C(=O)N[C@@H](CCC(=O)O)C(=O)N[C@@H](CO)C(=O)O)[C@@H](C)O)C(C)C)[C@@H](C)CC)C(C)C)[C@@H](C)CC [LL-37, reference compound]	55.41%														
CC(=O)c1ccc2c(c1OCCCNCCCN1CCCC1)C=CC(C)(CCC=C(C)C)O2 (stereo not shown) [Compound 5h]		8 µg/mL (≈ 17.6 µM)	8 µg/mL (≈ 17.6 µM)	8 µg/mL (≈ 17.6 µM)	8 µg/mL (≈ 17.6 µM)	8 µg/mL (≈ 17.6 µM)	8 µg/mL (≈ 17.6 µM)	8 µg/mL (≈ 17.6 µM)	4 µg/mL (≈ 8.8 µM)	4 µg/mL (≈ 8.8 µM)	16 µg/mL (≈ 35.2 µM)	8 µg/mL (≈ 17.6 µM)	84.7 µg/mL	32 µg/mL (≈ 70.4 µM)	32 µg/mL (≈ 70.4 µM)
CC[N+](CC)(CC)CCCOc1c2c(c3c(c1C(C)=O)OC(C)(CCC=C(C)C)C=C3)OC(C)(CCC=C(C)C)C=C2 (stereo not shown) [Compound 9a, 3-((6-Acetyl-2,8-dimethyl-2,8-bis(4-methylpent-3-en-1-yl)-2H,8H-pyrano[2,3-f]chromen-5-yl)oxy)-N,N,N-triethylpropan-1-aminium]		2 to 4 µg/mL	1 µg/mL	2 µg/mL	4 µg/mL	> 128 µg/mL	> 128 µg/mL	4 µg/mL	128 µg/mL	2 µg/mL	> 128 µg/mL	4 µg/mL	40.4 µg/mL	4 µg/mL	4 µg/mL
CCN(CC)CCCOc1c(C(C)=O)ccc2c1C=CC(C)(CCC=C(C)C)O2 (stereo not shown) [Compound 5c, 1-(5-(3-(Diethylamino)propoxy)-2-methyl-2-(4-methylpent-3-en-1-yl)-2H-chromen-6-yl)ethan-1-one]		8 to 128 µg/mL (≈ 20 to 320 µM)	16 µg/mL (≈ 40 µM)	32 µg/mL (≈ 80.1 µM)	32 µg/mL (≈ 80.1 µM)	16 µg/mL (≈ 40 µM)	128 µg/mL (≈ 320 µM)	32 µg/mL (≈ 80.1 µM)	32 µg/mL (≈ 80.1 µM)	16 µg/mL (≈ 40 µM)	32 µg/mL (≈ 80.1 µM)	32 µg/mL (≈ 80.1 µM)	324.1 µg/mL	128 µg/mL (≈ 320 µM)	64 µg/mL (≈ 160 µM)

Reference: article PMC11350758, “Development of Xanthoangelol-Derived Compounds with Membrane-Disrupting Effects against Gram-Positive Bacteria” (Antibiotics, 2024)
